Assay results: the supplement of paper PMC11061612

Tests used:
[1] = system: HGC-27 (Gastric Carcinoma); assay: Bliss excess, mean over the matrix (fraction); higher = more synergy
Summary of the method: (§1)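 Cell lines in DMEM/F12 or RPMI with 10% FBS were plated in 1536-well plates, held 24 hours at 37°C, 5% CO2, then given two-drug dose matrices for 72 hours (DMSO typically 0.2%). Viability was read by CellTiter-Glo 2.0 luminescence and scaled as inhibition from 0 (vehicle wells) to 1 (blank wells). Combination Emax is the second-highest inhibition in the matrix; Bliss excess is observed combination effect minus expected EA + EB − EA·EB, EA and EB being single-agent effects.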

[2] = system: HOP-62 (Lung Adenocarcinoma); assay: as above
Summary of the method: as §1

[3] = system: KMOE-2 (Acute Myeloid Leukemia); assay: as above
Summary of the method: as §1

[4] = system: NEC8 (Other Solid Carcinomas); assay: as above
Summary of the method: as §1

PWR-1E (Non-Cancerous) [5] = assay: as above
Summary of the method: as §1

[6] = system: SU8686 (Pancreatic Carcinoma); assay: as above
Summary of the method: as §1

[7] = system: TE-1 (Esophageal Squamous Cell Carcinoma); assay: as above
Summary of the method: as §1

[8] = system: C-4-I (Cervical Carcinoma); assay: combination Emax (second highest fraction inhibited in the dose matrix, 72 h); higher = more inhibition; extreme values may be limits of the assay
Summary of the method: as §1

[9] = system: HGC-27 (Gastric Carcinoma); assay: as above
Summary of the method: as §1

[10] = system: HOP-62 (Lung Adenocarcinoma); assay: as above
Summary of the method: as §1

[11] = system: JVM-3 (B-Cell Non-Hodgkin's Lymphoma); assay: as above
Summary of the method: as §1

[12] = system: KMOE-2 (Acute Myeloid Leukemia); assay: as above
Summary of the method: as §1

[13] = system: NEC8 (Other Solid Carcinomas); assay: as above
Summary of the method: as §1

[14] = system: NUGC-3 (Gastric Carcinoma); assay: as above
Summary of the method: as §1

[15] = system: OSC-20 (Oral Cavity Carcinoma); assay: as above
Summary of the method: as §1

[16] = system: OVCAR-4 (Ovarian Carcinoma); assay: as above
Summary of the method: as §1

PWR-1E (Non-Cancerous) [17] = assay: as above
Summary of the method: as §1

[18] = system: SCC-15 (Oral Cavity Carcinoma); assay: as above
Summary of the method: as §1

[19] = system: SU8686 (Pancreatic Carcinoma); assay: as above
Summary of the method: as §1

[20] = system: TE-1 (Esophageal Squamous Cell Carcinoma); assay: as above
Summary of the method: as §1
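Throughout, for Bliss excess, mean over the matrix: after 72 h of two-drug dosing.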

| SMILES | Bliss excess [1] | Bliss excess [2] | Bliss excess [3] | Bliss excess [4] | Bliss excess (PWR-1E (Non-Cancerous) [5]) | Bliss excess [6] | Bliss excess [7] | combination Emax [8] | combination Emax [9] | combination Emax [10] | combination Emax [11] | combination Emax [12] | combination Emax [13] | combination Emax [14] | combination Emax [15] | combination Emax [16] | combination Emax (PWR-1E (Non-Cancerous) [17]) | combination Emax [18] | combination Emax [19] | combination Emax [20] |
| --- | --- | --- | --- | --- | --- | --- | --- | --- | --- | --- | --- | --- | --- | --- | --- | --- | --- | --- | --- | --- |
| CN(CCO)CC[C@H](CSc1ccccc1)Nc1ccc(S(=O)(=O)NC(=O)c2ccc(N3CCC([C@@H](O)c4ccccc4-c4ccc(Cl)cc4)CC3)cc2)cc1S(=O)(=O)C(F)(F)F [AZD4320] + CCN(CCO)CCCOc1ccc2c(Nc3cc(CC(=O)Nc4cccc(F)c4)[nH]n3)ncnc2c1 [AZD2811] (first compound max 1 µM, 7x7, partner max 1 µM) | 0.032 | -0.0197 | 0.0171 | -0.0138 | 0.0514 | -0.03 | 0.0794 | 0.657 | 0.96 | 0.359 | 1 | 0.934 | 0.159 | 0.498 | 0.291 | 0.389 | 0.843 | 0.346 | 0.155 | 0.655 |
| Cc1cc2ncnn2cc1Nc1ncc2c(n1)n(C1CCOCC1)c(=O)n2C [AZD7648] + O=C(c1cc(Cc2n[nH]c(=O)c3ccccc23)ccc1F)N1CCN(C(=O)C2CC2)CC1 [Olaparib] (first compound max 10 µM, 7x7, partner max 10 µM) | -0.0092 | -0.0528 | -0.0066 | 0.0327 | -0.0005 | -0.0457 | -0.0298 | 0.224 | 0.629 | 0.145 | 0.499 | 0.176 | 0.259 | 0.349 | 0.265 | 0.133 | 0.28 | 0.14 | 0.0508 | 0.15 |
| CN(CCO)CC[C@H](CSc1ccccc1)Nc1ccc(S(=O)(=O)NC(=O)c2ccc(N3CCC([C@@H](O)c4ccccc4-c4ccc(Cl)cc4)CC3)cc2)cc1S(=O)(=O)C(F)(F)F [AZD4320] + Cn1cnc2c(F)c(Nc3ccc(Br)cc3Cl)c(C(=O)NOCCO)cc21 [Selumetinib] (first compound max 1 µM, 7x7, partner max 3 µM) | 0.0579 | -0.0508 | 0.0415 | 0.021 | 0.0024 | -0.0002 | 0.0819 | 0.52 | 0.381 | 0.536 | 1 | 1 | 0.341 | 0.762 | 0.321 | 0.381 | 0.601 | 0.548 | 0.228 | 0.554 |
| CN(CCO)CC[C@H](CSc1ccccc1)Nc1ccc(S(=O)(=O)NC(=O)c2ccc(N3CCC([C@@H](O)c4ccccc4-c4ccc(Cl)cc4)CC3)cc2)cc1S(=O)(=O)C(F)(F)F [AZD4320] + Cc1cc2ncnn2cc1Nc1ncc2c(n1)n(C1CCOCC1)c(=O)n2C [AZD7648] (first compound max 1 µM, 7x7, partner max 10 µM) | -0.0473 | -0.0479 | -0.0058 | 0.0104 | -0.0352 | -0.0355 | -0.0443 | 0.132 | 0.473 | 0.167 | 0.916 | 0.896 | 0.159 | 0.347 | 0.0714 | 0.127 | 0.0822 | 0.265 | 0.0978 | 0.38 |
| Cc1cc2ncnn2cc1Nc1ncc2c(n1)n(C1CCOCC1)c(=O)n2C [AZD7648] + C[C@@H]1COCCN1C2=NC(=NC(=C2)C3(CC3)[S@](=N)(=O)C)C4=C5C=CNC5=NC=C4 [AZD6738] (first compound max 10 µM, 7x7, partner max 10 µM) | -0.0265 | -0.0009 | 0.0035 | 0.0119 | -0.109 | -0.0289 | -0.0086 | 0.929 | 0.849 | 0.435 | 0.809 | 0.586 | 0.7 | 0.665 | 0.41 | 0.737 | 0.769 | 0.565 | 0.232 | 0.414 |
| C[C@@H](c1ccc2nccn2c1)n1nnc2ncc(-c3cnn(C)c3)nc21 [Savolitinib] + Cc1c2c(nn1C)CSCc1cc(n(C)n1)CSc1cc(c3ccccc3c1)OCCCc1c(C(=O)O)n(C)c3c-2c(Cl)ccc13 [AZD5991] (first compound max 1 µM, 7x7, partner max 1 µM) | 0.0154 | -0.0754 | -0.0312 | -0.0093 | -0.0664 | -0.0127 | -0.0748 | 0.273 | 0.238 | 0.154 | – | 0.113 | 0.273 | 0.23 | 0.137 | 0.138 | 0.186 | 0.186 | 0.137 | 0.162 |
| Cc1cc2ncnn2cc1Nc1ncc2c(n1)n(C1CCOCC1)c(=O)n2C [AZD7648] + CCN(CCO)CCCOc1ccc2c(Nc3cc(CC(=O)Nc4cccc(F)c4)[nH]n3)ncnc2c1 [AZD2811] (first compound max 10 µM, 7x7, partner max 1 µM) | -0.0685 | 0.0126 | 0.0325 | -0.0082 | 0.0299 | -0.0135 | -0.0535 | 0.298 | 0.856 | 0.204 | 0.592 | 0.297 | 0.0355 | 0.418 | 0.454 | 0.285 | 0.588 | 0.458 | 0.139 | 0.246 |
| CN(CCO)CC[C@H](CSc1ccccc1)Nc1ccc(S(=O)(=O)NC(=O)c2ccc(N3CCC([C@@H](O)c4ccccc4-c4ccc(Cl)cc4)CC3)cc2)cc1S(=O)(=O)C(F)(F)F [AZD4320] + C1CN(CCC1(C(=O)N[C@@H](CCO)C2=CC=C(C=C2)Cl)N)C3=NC=NC4=C3C=CN4 [Capivasertib] (first compound max 1 µM, 7x7, partner max 3 µM) | -0.0252 | -0.0414 | -0.0435 | -0.0356 | -0.0067 | -0.0385 | -0.0292 | 0.145 | 0.775 | 0.115 | 0.889 | 0.828 | 0.0891 | 0.127 | 0.0937 | 0.0826 | 0.252 | 0.14 | 0.0053 | 0.369 |
| CN(CCO)CC[C@H](CSc1ccccc1)Nc1ccc(S(=O)(=O)NC(=O)c2ccc(N3CCC([C@@H](O)c4ccccc4-c4ccc(Cl)cc4)CC3)cc2)cc1S(=O)(=O)C(F)(F)F [AZD4320] + C[C@@H]1COCCN1C2=NC(=NC(=C2)C3(CC3)[S@](=N)(=O)C)C4=C5C=CNC5=NC=C4 [AZD6738] (first compound max 1 µM, 7x7, partner max 10 µM) | -0.0321 | -0.0483 | -0.0399 | -0.0089 | -0.0313 | -0.0222 | -0.004 | 0.952 | 0.812 | 0.599 | 0.993 | 0.938 | 0.904 | 0.756 | 0.358 | 0.794 | 0.971 | 0.709 | 0.205 | 0.742 |
| CN(CCO)CC[C@H](CSc1ccccc1)Nc1ccc(S(=O)(=O)NC(=O)c2ccc(N3CCC([C@@H](O)c4ccccc4-c4ccc(Cl)cc4)CC3)cc2)cc1S(=O)(=O)C(F)(F)F [AZD4320] + C[C@@H](Nc1cc(F)cc(F)c1)c1cc(C(=O)N(C)C)cc2c(=O)cc(N3CCOCC3)oc12 [AZD8186] (first compound max 1 µM, 7x7, partner max 3 µM) | -0.0272 | -0.0226 | 0.0407 | 0.0171 | -0.0097 | -0.0031 | -0.0549 | 0.611 | 0.64 | 0.602 | 1 | 0.887 | 0.341 | 0.777 | 0.36 | 0.322 | 0.592 | 0.447 | 0.216 | 0.532 |
| C[C@@H](c1ccc2nccn2c1)n1nnc2ncc(-c3cnn(C)c3)nc21 [Savolitinib] + CC1(C)CCC(CN2CCN(c3ccc(C(=O)NS(=O)(=O)c4ccc(NCC5CCOCC5)c([N+](=O)[O-])c4)c(Oc4cnc5[nH]ccc5c4)c3)CC2)=C(c2ccc(Cl)cc2)C1 [Venetoclax] (first compound max 1 µM, 7x7, partner max 1 µM) | -0.0158 | -0.0939 | -0.0414 | -0.0236 | -0.034 | -0.0617 | -0.0546 | 0.0949 | 0.147 | 0.0599 | – | 0.0977 | 0.117 | 0.181 | 0.149 | 0.0979 | 0.0879 | 0.191 | 0.0716 | 0.0986 |
| Cc1nc(Nc2ncc(C(=O)Nc3c(C)cccc3Cl)s2)cc(N2CCN(CCO)CC2)n1 [Dasatinib] + CC(=O)Nc1cccc(-n2c(=O)n(C3CC3)c(=O)c3c(Nc4ccc(I)cc4F)n(C)c(=O)c(C)c32)c1 [Trametinib] (first compound max 2 µM, 7x7, partner max 1 µM) | -0.0355 | -0.0824 | -0.0125 | -0.0277 | 0.0481 | -0.0328 | -0.0067 | 0.731 | 0.726 | 0.749 | – | 1 | 0 | 0.721 | 0.434 | 0.62 | 0.897 | 0.739 | 0.388 | 0.791 |
| COc1cc2ncnc(Nc3ccc(F)c(Cl)c3)c2cc1OCCCN1CCOCC1 [Gefitinib] + CC(C)n1c(=O)n(C)c2cnc3cc(F)c(-c4ccc(OCCCN5CCCCC5)nc4)cc3c21 [AZD1390] (first compound max 10 µM, 7x7, partner max 0.3 µM) | -0.0261 | -0.0751 | -0.0589 | -0.0278 | -0.0234 | -0.0378 | -0.0471 | 0.387 | 0.238 | 0.0723 | – | 0.0507 | 0 | 0.486 | 0.064 | 0.0866 | 0.205 | 0.39 | 0.082 | 0.368 |
